Results reported in patent publication US20120270237A9, “METHODS FOR THE IDENTIFICATION OF KINASE INTERACTING MOLECULES AND FOR THE PURIFICATION OF KINASE PROTEINS” (Cellzone AG, priority 2009, published 2012).

Legend:
Assay in all cases: Kinobeads competition binding, HL60 cell lysate
Set-up in all cases: endogenous in cells
Conditions in all cases: 10 μM free compound
BTK = BTK (Homo sapiens, UniProt Q06187)
In short: (§1)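 HL60 lysate (50 mg protein) pre-incubated with 10 μM free compound or 0.5% DMSO, then captured on beads bearing the immobilized compound for 2 h at 4 °C. Eluted proteins were trypsin-digested in-gel, iTRAQ-labeled and quantified by LC-MS/MS from reporter-ion peak areas relative to the DMSO control.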

AurB = AurB (Homo sapiens, UniProt Q96GD4)
In short: as §1

AAK1 = AAK1 (Homo sapiens, UniProt Q2M2I8)
In short: as §1

SLK = SLK (Homo sapiens, UniProt Q9H2G2)
In short: as §1

CaMKK2 = CaMKK2 (Homo sapiens, UniProt Q96RR4)
In short: as §1

MLK4 = MLK4 (Homo sapiens, UniProt Q5TCX8)
In short: as §1

FES = FES (Homo sapiens, UniProt P07332)
In short: as §1

AurB, sequence (Q96GD4 whole entry): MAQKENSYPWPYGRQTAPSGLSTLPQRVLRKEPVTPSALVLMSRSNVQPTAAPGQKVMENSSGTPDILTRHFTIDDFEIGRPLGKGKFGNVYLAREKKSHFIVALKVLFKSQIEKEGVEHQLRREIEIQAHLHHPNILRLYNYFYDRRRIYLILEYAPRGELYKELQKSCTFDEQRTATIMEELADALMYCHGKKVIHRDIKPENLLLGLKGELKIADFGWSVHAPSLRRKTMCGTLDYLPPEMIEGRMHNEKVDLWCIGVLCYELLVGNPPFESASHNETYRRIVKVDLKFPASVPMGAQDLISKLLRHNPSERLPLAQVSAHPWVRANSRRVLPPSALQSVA
FES, sequence (P07332 whole entry): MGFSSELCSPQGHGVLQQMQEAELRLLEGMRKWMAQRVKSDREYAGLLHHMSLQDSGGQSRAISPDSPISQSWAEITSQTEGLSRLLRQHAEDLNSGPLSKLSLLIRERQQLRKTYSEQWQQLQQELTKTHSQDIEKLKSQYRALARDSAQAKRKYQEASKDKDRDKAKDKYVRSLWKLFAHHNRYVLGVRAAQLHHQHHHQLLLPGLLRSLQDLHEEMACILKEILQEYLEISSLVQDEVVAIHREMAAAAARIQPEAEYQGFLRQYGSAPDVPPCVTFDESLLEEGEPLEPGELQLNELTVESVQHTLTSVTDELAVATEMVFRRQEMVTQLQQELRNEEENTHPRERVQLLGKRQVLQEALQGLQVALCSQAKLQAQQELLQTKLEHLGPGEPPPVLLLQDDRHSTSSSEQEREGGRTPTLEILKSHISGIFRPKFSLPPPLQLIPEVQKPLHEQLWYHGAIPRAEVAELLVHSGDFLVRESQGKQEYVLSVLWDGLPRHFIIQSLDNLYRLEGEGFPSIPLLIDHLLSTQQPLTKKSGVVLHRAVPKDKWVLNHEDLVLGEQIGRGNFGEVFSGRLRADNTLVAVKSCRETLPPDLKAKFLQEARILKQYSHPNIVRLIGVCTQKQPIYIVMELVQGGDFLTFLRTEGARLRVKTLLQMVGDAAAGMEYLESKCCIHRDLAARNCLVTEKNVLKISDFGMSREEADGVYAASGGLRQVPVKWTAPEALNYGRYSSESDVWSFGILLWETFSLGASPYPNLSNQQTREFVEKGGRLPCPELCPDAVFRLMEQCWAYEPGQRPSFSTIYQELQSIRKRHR
CaMKK2, sequence (Q96RR4 whole entry): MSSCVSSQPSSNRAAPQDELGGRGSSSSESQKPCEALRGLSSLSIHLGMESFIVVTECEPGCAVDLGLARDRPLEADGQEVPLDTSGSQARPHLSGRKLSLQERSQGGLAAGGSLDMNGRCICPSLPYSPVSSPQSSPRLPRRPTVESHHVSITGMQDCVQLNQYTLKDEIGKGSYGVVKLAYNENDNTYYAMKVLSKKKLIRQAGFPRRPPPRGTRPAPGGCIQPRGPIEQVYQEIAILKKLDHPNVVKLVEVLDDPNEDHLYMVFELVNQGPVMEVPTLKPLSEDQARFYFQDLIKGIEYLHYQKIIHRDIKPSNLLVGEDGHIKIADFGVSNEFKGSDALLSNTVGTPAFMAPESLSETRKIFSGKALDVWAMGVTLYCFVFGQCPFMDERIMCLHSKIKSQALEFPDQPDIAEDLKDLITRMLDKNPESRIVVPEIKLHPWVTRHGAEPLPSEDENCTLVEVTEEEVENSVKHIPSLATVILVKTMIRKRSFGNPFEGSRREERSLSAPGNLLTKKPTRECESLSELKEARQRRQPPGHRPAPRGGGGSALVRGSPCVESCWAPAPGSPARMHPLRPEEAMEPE
BTK, sequence (Q06187 whole entry): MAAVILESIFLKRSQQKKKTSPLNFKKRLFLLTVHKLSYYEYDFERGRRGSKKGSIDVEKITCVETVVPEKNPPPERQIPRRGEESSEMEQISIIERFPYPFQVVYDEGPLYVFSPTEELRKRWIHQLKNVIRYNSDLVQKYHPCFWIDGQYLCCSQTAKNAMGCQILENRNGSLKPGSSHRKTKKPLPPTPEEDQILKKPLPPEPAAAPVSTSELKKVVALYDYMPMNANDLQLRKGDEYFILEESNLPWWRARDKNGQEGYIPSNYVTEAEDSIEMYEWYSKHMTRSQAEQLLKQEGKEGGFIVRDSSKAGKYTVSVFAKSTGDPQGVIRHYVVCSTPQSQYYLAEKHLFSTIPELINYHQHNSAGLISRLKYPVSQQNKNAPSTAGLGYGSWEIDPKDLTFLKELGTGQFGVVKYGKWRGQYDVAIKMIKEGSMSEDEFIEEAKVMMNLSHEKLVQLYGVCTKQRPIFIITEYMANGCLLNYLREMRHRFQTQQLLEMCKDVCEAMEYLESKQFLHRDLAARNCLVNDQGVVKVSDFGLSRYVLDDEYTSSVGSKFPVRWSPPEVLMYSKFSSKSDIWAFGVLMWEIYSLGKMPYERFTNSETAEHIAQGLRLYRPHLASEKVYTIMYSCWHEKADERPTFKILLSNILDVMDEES
SLK, sequence (Q9H2G2 whole entry): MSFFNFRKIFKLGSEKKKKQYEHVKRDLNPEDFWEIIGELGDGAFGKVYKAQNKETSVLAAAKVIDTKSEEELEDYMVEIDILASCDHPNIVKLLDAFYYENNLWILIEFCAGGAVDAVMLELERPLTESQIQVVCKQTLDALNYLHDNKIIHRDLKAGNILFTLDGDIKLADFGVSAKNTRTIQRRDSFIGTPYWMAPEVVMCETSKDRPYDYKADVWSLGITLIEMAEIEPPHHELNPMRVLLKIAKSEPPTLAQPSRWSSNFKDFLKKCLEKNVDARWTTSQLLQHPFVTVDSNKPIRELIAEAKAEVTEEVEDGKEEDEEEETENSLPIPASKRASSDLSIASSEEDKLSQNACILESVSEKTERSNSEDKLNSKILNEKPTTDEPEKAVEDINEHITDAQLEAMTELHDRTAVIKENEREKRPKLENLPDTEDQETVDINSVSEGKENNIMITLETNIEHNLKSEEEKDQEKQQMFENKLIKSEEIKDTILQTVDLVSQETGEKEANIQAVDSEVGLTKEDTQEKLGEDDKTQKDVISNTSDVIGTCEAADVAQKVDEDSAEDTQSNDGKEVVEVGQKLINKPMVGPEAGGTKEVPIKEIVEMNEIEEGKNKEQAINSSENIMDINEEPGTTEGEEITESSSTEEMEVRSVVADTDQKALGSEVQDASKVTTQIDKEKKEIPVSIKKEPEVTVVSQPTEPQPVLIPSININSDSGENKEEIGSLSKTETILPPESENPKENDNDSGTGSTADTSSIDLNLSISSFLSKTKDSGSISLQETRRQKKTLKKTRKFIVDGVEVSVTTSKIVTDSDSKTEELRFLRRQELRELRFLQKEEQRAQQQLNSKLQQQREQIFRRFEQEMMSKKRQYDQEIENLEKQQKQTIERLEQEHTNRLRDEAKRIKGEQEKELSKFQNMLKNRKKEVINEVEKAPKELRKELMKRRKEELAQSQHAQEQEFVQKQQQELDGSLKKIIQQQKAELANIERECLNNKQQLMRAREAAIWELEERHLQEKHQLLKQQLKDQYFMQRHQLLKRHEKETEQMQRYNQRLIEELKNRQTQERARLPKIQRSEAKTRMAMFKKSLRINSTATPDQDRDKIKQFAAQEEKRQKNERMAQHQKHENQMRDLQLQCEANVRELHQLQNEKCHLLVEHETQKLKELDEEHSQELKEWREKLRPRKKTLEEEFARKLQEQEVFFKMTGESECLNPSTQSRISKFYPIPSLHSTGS
MLK4, sequence (Q5TCX8 whole entry): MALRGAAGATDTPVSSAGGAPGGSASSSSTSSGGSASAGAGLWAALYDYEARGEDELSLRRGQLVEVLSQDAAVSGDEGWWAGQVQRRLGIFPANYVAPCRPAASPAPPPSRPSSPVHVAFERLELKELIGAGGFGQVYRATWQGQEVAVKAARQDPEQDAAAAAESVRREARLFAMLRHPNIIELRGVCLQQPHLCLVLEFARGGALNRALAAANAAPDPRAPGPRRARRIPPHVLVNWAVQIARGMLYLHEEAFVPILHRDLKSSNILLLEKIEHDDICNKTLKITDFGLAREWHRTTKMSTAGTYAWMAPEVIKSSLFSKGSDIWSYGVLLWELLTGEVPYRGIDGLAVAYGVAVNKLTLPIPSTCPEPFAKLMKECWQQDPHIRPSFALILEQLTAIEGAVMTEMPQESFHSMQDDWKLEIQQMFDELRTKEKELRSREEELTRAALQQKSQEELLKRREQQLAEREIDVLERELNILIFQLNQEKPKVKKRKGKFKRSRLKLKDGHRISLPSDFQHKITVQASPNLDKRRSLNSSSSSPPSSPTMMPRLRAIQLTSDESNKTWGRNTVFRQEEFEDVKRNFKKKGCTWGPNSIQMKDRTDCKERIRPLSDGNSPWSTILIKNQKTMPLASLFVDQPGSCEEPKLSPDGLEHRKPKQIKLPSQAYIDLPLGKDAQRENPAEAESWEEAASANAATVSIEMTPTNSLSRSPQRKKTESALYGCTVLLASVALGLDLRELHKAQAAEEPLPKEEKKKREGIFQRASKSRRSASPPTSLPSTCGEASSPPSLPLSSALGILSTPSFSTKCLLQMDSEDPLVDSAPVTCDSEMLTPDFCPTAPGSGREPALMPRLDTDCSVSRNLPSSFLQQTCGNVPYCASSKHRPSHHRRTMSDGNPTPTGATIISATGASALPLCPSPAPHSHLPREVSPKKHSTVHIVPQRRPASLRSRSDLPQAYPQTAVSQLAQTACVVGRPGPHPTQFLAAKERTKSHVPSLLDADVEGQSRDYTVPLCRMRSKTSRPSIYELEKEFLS

Competition % (BTK): 97.1%
inhibition at 10 µM (AurB): 95%
inhibition at 10 µM (AAK1): 97.8%
inhibition at 10 µM (SLK): 97.5%
inhibition at 10 µM (CaMKK2): 98.1%
inhibition at 10 µM (MLK4): 95%
inhibition at 10 µM (FES): 96.3%
Compound: CS(=O)(=O)Nc1ccccc1Nc1nc(Nc2cccc(OCCN)c2)ncc1Cl [CZC31326, N-(2-(2-(3-(2-aminoethoxy)phenylamino)-5-chloropyrimidin-4-ylamino)phenyl)methanesulfonamide]
